{"source": "patent US20240360122A1", "about": "“POLYMORPHIC FORMS AND SALTS OF A GLP-1R AGONIST” (Terns (Suzhou) Biotechnology Co., Ltd., priority 2023, published 2024)", "key": {"[1]": {"test": "Hygroscopicity by DVS at 25° C.", "format": "physicochemical", "experimental": "DVS was measured via a SMS (Surface Measurement Systems) DVS Intrinsic. The relative humidity at 25° C. were calibrated against deliquescence point of LiCl, Mg(NO3)2 and KCl."}, "[2]": {"test": "Solid state stability at 25° C./60% RH and 40° C./75% RH for 1 week", "format": "physicochemical", "conditions": "for HPLC peak Area, RRT 1.00: main peak", "experimental": "Each sample was added into a glass vial, sealed by parafilm with several holes, and kept under tested conditions. After one week, samples were taken for XRPD and HPLC purity test."}}, "note": "Where a name gives a salt, the structure may show the parent alone.", "data": [{"smiles": "N#Cc1ccc(COc2cccc(C3CCN(Cc4nc5ccc(C(=O)O)cc5n4Cc4cncs4)CC3)n2)c(F)c1", "note": "[Meglumine salt Type A]", "values": [{"measurement": "water uptake (DVS)", "setting": "[1]; 25° C./80% RH", "value": 1.43, "unit": "%"}, {"measurement": "hygroscopicity", "setting": "[1]; DVS, 25° C.", "value": "slightly hygroscopic"}, {"measurement": "Water uptake at 25° C./80% RH", "setting": "[1]; DVS, 25° C./80% RH", "value": 1.43, "unit": "wt %"}, {"measurement": "For change after DVS", "setting": "[1]; XRPD after DVS test", "value": "No"}, {"measurement": "form change after DVS test (XRPD)", "setting": "[1]; after DVS test", "value": "no form change"}, {"measurement": "HPLC peak Area, RRT 0.70", "setting": "[2]; 25° C./60% RH, 1 week", "value": 0.07, "unit": "%"}, {"measurement": "HPLC peak Area, RRT 0.73", "setting": "[2]; 25° C./60% RH, 1 week", "value": 0.14, "unit": "%"}, {"measurement": "HPLC peak Area, RRT 0.80", "setting": "[2]; 25° C./60% RH, 1 week", "value": 0.05, "unit": "%"}, {"measurement": "HPLC peak Area, RRT 0.83", "setting": "[2]; 25° C./60% RH, 1 week", "value": 1.93, "unit": "%"}, {"measurement": "HPLC peak Area, RRT 0.90", "setting": "[2]; 25° C./60% RH, 1 week", "value": 0.12, "unit": "%"}, {"measurement": "HPLC peak Area, RRT 0.99", "setting": "[2]; 25° C./60% RH, 1 week", "value": "<0.05", "unit": "%"}, {"measurement": "HPLC peak Area, RRT 1.05", "setting": "[2]; 25° C./60% RH, 1 week", "value": 0.28, "unit": "%"}, {"measurement": "HPLC peak Area, RRT 1.10", "setting": "[2]; 25° C./60% RH, 1 week", "value": 0.23, "unit": "%"}, {"measurement": "HPLC peak Area, RRT 1.12", "setting": "[2]; 25° C./60% RH, 1 week", "value": "<0.05", "unit": "%"}, {"measurement": "HPLC peak Area, RRT 1.15", "setting": "[2]; 25° C./60% RH, 1 week", "value": 0.11, "unit": "%"}, {"measurement": "HPLC peak Area, RRT 1.34", "setting": "[2]; 25° C./60% RH, 1 week", "value": 0.08, "unit": "%"}, {"measurement": "HPLC peak Area, RRT 1.00", "setting": "[2]; 25° C./60% RH, 1 week", "value": 96.98, "unit": "%"}, {"measurement": "Form change", "setting": "[2]; 25° C./60% RH/Open/1 week", "value": "No"}, {"measurement": "Purity", "setting": "[2]; 25° C./60% RH/Open/1 week", "value": 96.98, "unit": "Area %"}, {"measurement": "solid-state stability: form change and purity decrease", "setting": "[2]; 25° C./60% RH/open and 40° C./75% RH/open, 1 week", "value": "no form change or significant purity decrease"}, {"measurement": "HPLC peak Area, RRT 0.70", "setting": "[2]; 40° C./75% RH, 1 week", "value": 0.06, "unit": "%"}, {"measurement": "HPLC peak Area, RRT 0.73", "setting": "[2]; 40° C./75% RH, 1 week", "value": 0.15, "unit": "%"}, {"measurement": "HPLC peak Area, RRT 0.80", "setting": "[2]; 40° C./75% RH, 1 week", "value": 0.05, "unit": "%"}, {"measurement": "HPLC peak Area, RRT 0.83", "setting": "[2]; 40° C./75% RH, 1 week", "value": 1.96, "unit": "%"}, {"measurement": "HPLC peak Area, RRT 0.90", "setting": "[2]; 40° C./75% RH, 1 week", "value": 0.11, "unit": "%"}, {"measurement": "HPLC peak Area, RRT 0.99", "setting": "[2]; 40° C./75% RH, 1 week", "value": "<0.05", "unit": "%"}, {"measurement": "HPLC peak Area, RRT 1.05", "setting": "[2]; 40° C./75% RH, 1 week", "value": 0.28, "unit": "%"}, {"measurement": "HPLC peak Area, RRT 1.10", "setting": "[2]; 40° C./75% RH, 1 week", "value": 0.34, "unit": "%"}, {"measurement": "HPLC peak Area, RRT 1.12", "setting": "[2]; 40° C./75% RH, 1 week", "value": "<0.05", "unit": "%"}, {"measurement": "HPLC peak Area, RRT 1.15", "setting": "[2]; 40° C./75% RH, 1 week", "value": 0.13, "unit": "%"}, {"measurement": "HPLC peak Area, RRT 1.34", "setting": "[2]; 40° C./75% RH, 1 week", "value": 0.05, "unit": "%"}, {"measurement": "HPLC peak Area, RRT 1.00", "setting": "[2]; 40° C./75% RH, 1 week", "value": 96.88, "unit": "%"}, {"measurement": "Form change", "setting": "[2]; 40° C./75% RH/Open/1 week", "value": "No"}, {"measurement": "Purity", "setting": "[2]; 40° C./75% RH/Open/1 week", "value": 96.88, "unit": "Area %"}, {"measurement": "HPLC peak Area, RRT 0.70", "setting": "[2]; Initial", "value": 0.07, "unit": "%"}, {"measurement": "HPLC peak Area, RRT 0.73", "setting": "[2]; Initial", "value": 0.13, "unit": "%"}, {"measurement": "HPLC peak Area, RRT 0.80", "setting": "[2]; Initial", "value": 0.05, "unit": "%"}, {"measurement": "HPLC peak Area, RRT 0.83", "setting": "[2]; Initial", "value": 1.95, "unit": "%"}, {"measurement": "HPLC peak Area, RRT 0.90", "setting": "[2]; Initial", "value": 0.12, "unit": "%"}, {"measurement": "HPLC peak Area, RRT 0.99", "setting": "[2]; Initial", "value": 0.11, "unit": "%"}, {"measurement": "HPLC peak Area, RRT 1.05", "setting": "[2]; Initial", "value": 0.28, "unit": "%"}, {"measurement": "HPLC peak Area, RRT 1.10", "setting": "[2]; Initial", "value": 0.24, "unit": "%"}, {"measurement": "HPLC peak Area, RRT 1.12", "setting": "[2]; Initial", "value": 0.05, "unit": "%"}, {"measurement": "HPLC peak Area, RRT 1.15", "setting": "[2]; Initial", "value": 0.11, "unit": "%"}, {"measurement": "HPLC peak Area, RRT 1.34", "setting": "[2]; Initial", "value": 0.16, "unit": "%"}, {"measurement": "Purity", "setting": "[2]; Initial", "value": 96.73, "unit": "Area %"}, {"measurement": "HPLC peak Area, RRT 1.00", "setting": "[2]; Initial", "value": 96.73, "unit": "%"}]}]}
